Results as given in publication PMC4171615, “Discovery of selective inhibitors of Glutaminase-2, which inhibit mTORC1, activate autophagy and inhibit proliferation in cancer cells” (Oncotarget, 2014).
Where a chain is given by its changes, count along the chain named.

Experiments:
Type in all cases: biochemical
[1] = target: T1, KGA_D520K (Homo sapiens, UniProt O94925, D520K); assay: Glutaminase activity assay, KGA mutant D520K
T1 construct: a KGA cDNA fragment of 1644 bp (residues Leu123-Leu669); His-tag (N); made in house; host or cells: Escherichia coli
T1 sequence (O94925 123-669 D520K): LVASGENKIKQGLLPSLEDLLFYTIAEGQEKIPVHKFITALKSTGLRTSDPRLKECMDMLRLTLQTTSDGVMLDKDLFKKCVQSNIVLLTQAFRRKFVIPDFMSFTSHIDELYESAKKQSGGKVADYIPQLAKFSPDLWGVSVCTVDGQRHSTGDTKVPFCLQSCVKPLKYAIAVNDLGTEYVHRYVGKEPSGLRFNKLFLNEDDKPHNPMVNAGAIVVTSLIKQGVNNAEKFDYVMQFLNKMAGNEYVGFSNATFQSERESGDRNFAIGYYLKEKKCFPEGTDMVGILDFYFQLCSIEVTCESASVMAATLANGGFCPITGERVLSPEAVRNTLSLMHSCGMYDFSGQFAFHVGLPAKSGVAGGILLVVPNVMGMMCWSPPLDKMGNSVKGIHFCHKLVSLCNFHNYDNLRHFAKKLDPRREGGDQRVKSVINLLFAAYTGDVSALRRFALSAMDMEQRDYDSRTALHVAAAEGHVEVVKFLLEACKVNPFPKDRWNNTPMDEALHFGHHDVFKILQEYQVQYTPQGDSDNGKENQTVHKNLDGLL
Protocol: (§1) Human glutaminase activity was measured using a two-step assay as described previously. A microtiter assay format was used to facilitate the collection of multiple data points. Typically, 10 μl of compound, which was dissolved in DMSO, was added to 80 μl of an initial assay mix (0.1 mM hKGA, 0.2 mM EDTA and 50 mM Tris/acetate, pH 8.6). Samples were incubated at 25°C for 10 min and then 10 μl of 200 mM glutamine were added to the reaction mix. After adding glutamine, the reactions were incubated at 37°C for 60 min and then quenched by the addition of 10 μl of 0.6 M HCl. Subsequently, 100 μl of a second reaction mixture (3.7 units of purified bovine liver glutamate dehydrogenase, 160 mM Tris/acetate [pH 9.4], 400 mM hydrazine, 5 mM ADP and 2 mM NAD^+) was added to the stopped first reaction mixture and incubated for 30 min at 25°C. The absorbance at 340 nm was measured using a Wallac Victor2V plate reader (PerkinElmer), fitted with a 340 nm excitation filter. Sample absorbance was measured against a blank, containing no human glutaminase.
(§2) Site-directed mutagenesis was performed on the pET28a(+)-GAB or pET28a(+)-KGA plasmids using PfuUltra II Fusion HS DNA polymerase (Agilent Technologies) to create the GAB and KGA mutants. […] The sequence alignment was compared with crystal structure of the GAC (PDB code: 3UO9) and the resulting model of GAB was analyzed using the Swiss-PDB server. […]

[2] = target: T2, KGA_H519Q (Homo sapiens, UniProt O94925, H519Q); assay: Glutaminase activity assay, KGA mutant H519Q
T2 construct: a KGA cDNA fragment of 1644 bp (residues Leu123-Leu669); His-tag (N); made in house; host or cells: Escherichia coli
T2 sequence (O94925 123-669 H519Q): T1 sequence (O94925 123-669 D520K) with H397Q, K398D
Protocol: as §1, §2

[3] = target: T3, KGA_ H519Q/D520K (Homo sapiens, UniProt O94925, D520K/H519Q); assay: Glutaminase activity assay, KGA mutant H519Q/D520K
T3 construct: a KGA cDNA fragment of 1644 bp (residues Leu123-Leu669); His-tag (N); made in house; host or cells: Escherichia coli
T3 sequence (O94925 123-669 H519Q/D520K): T1 sequence (O94925 123-669 D520K) with H397Q
Protocol: as §1, §2

SMILES: CCCCCCCCCCCCCC(CC1=CC(=O)C=C(OC)C1=O)OC(C)=O (stereo not drawn) [AV-1]
- IC50 [1]: 290 ± 30 nM
- IC50 [2]: 1670 ± 120 nM
- IC50 [3]: 230 ± 30 nM
